Marks after values point to notes of the source that are not given here.

Experiment [1] has as its system isolated perfused hearts obtained from male rats. In words: Isolated heart model: atrial monophasic action potential and effective refractory period. The note with it: isolated rat heart; for effect on MAP duration (in words): 40-minute perfusion; for decrease in MAPD90 versus baseline: mANP n=8, ANP n=10. As to the method:
Atrial monophasic action potentials and effective refractory periods were measured in isolated perfused hearts obtained from male rats. Rapid cardiectomy was performed in male rats weighing 300-350 g, under general anesthesia with pentobarbital. The hearts were retrogradely perfused via the aorta at constant pressure and temperature (100 mmHg and 37° C.) with Kreb's-Henseleit buffer filtered at 0.22 μm and bubbled with 95% O2/5% CO2 at 37° C. and pH 7.4. Coronary perfusion flow was monitored constantly (T402, Transonic Systems, Ithaca, N.Y.) and remained >10 ml/min.
After establishment of a stable perfused heart preparation, the posterior atria were cut away to expose the left and right atrial endocardium and the atrioventricular (AV) node was mechanically crushed, resulting in AV dissociation. The right atrium was paced (Bloom Electrophysiology, via Fischer Imaging, Denver, Colo.) at a cycle length of 150 msec with a 0.1 msec pulse width using a bipolar platinum-tipped electrode (NuMED, Inc., Hopkinton, N.Y.), while the right ventricle was paced at a cycle length of 500 msec. A monophasic action potential (MAP) probe (Harvard Apparatus, Holliston, Mass.) was maintained in a single position on the anterior left atrial endocardium. Amplified signals (IsoDam, World Precision Instruments, Sarasota, Fla.) were digitally acquired at 2 kHz (USB-6210 and LabVIEW 8.2, National Instruments, Austin, Tex.). The MAP duration was measured at 90% repolarization on atrial beats without far field ventricular interference. The effective refractory period (ERP) was measured by delivering extrastimuli via the pacing catheter at decremental coupling intervals following at least 8 beats of a 150 ms cycle-length drive train. […] In separate heart preparations, the perfusion buffer was supplemented after baseline data acquisition with 100 nM of either ANP or mANP to assess the effect of both the wild-type and mutant hormones on MAP duration and ERP.
A two-sided t-test was used for comparison of data, assuming equal variance. Data are expressed as mean±S.E., and results were considered significant at p<0.05.

Experiment [2] concerns 10 week old male FVB mice. In words: Programmed electrical stimulation of the ventricles in anesthetized mice. The note with it: for ERP versus 30 minute saline group (in words) / ERP (ventricular effective refractory period) / Heart rate / PR interval / QRST interval: anesthetized mice; for ERP versus 30 minute saline group (in words): 30 minute treatment, ANOVA; for ERP (ventricular effective refractory period) / Heart rate / PR interval / QRST interval: after 30 minute peritoneal infusion 33 pmol/kg/min following 330 pmol/kg bolus, n=3; for VT score: sum over three mice, after 30 minute infusion, higher score = greater resistance to arrhythmia induction. The experiment is classed as in vivo, mouse. As to the method:
Programmed electrical stimulation of the ventricles was performed across the diaphragm via bipolar electrode catheter placed through an abdominal incision in 10 week old male FVB mice anesthetized with inhaled isoflurane, and was continuously monitored by electrocardiogram. Electrophysiologic parameters were analyzed at baseline and after a 30 minute peritoneal infusion of saline vs. 33 pmol/kg/min ANP or mANP, following a 330 pmol/kg bolus. […] The ventricular tachycardia (VT) score was obtained by scoring 1 point for induction of sustained VT with a single extrastimulus, 2 points for induction with double extrastimuli, and 3 points for failure to induce with single or double extrastimuli. Nonsustained VT (less than 1 second) was not scored. The score for each of three mice in a group was added. A higher score indicates greater resistance to arrhythmia induction.

Where [3] appears, read: 100 nM, 40 minutes perfusion, mean±S.E.

For the compound “mANP: Full-length 40-amino acid mutant ANP: normal 28-amino acid mature peptide plus an anomalous carboxyl-terminus of 12 residues (SLRRSSCFGGRMDRIGAQSGLGCNSFRYRITAREDKQGWA; listed as Homo sapiens)”, the “effect on MAP duration (in words)” value in experiment [1] (100 nM) is listed as “significant shortening”. The “reduction in effective refractory period (ERP) versus baseline” value in experiment [1] (100 nM, 40 minutes perfusion, mean±S.E., mANP n=7, ANP n=6) stood at 7.1 ± 2.4 ms. Also, the “decrease in MAPD90 versus baseline” value in experiment [1] (setting [3]) turned out to be 9 ± 2 ms. Besides, the “effect on ERP (in words)” value in experiment [1] (100 nM, compared to wild-type ANP) is “significant shortening”. Moreover, in experiment [1] (after 40-minute perfusion with 100 nM peptide, shortened from 47 msec at baseline), the “MAP duration at 90% repolarization (MAPD90), representative MAP” value stood at 41 ms. Besides, in experiment [2], the “ERP versus 30 minute saline group (in words)” value is recorded as “significantly shorter”, the “ERP (ventricular effective refractory period)” value is recorded as 19 + 4* msec, the Heart rate is 243 + 16 min^−1 and the PR interval is 76 + 4 msec. Further, in experiment [2], the QRST interval was 26 + 1 msec and the VT score is reported as 5.

Turning to `CC[C@H](C)[C@@H]1NC(=O)[C@H](CCCNC(=N)N)NC(=O)[C@H](CC(=O)O)NC(=O)[C@H](CCSC)NC(=O)[C@H](CCCNC(=N)N)NC(=O)CNC(=O)CNC(=O)[C@H](Cc2ccccc2)NC(=O)[C@@H](NC(=O)[C@H](CO)NC(=O)[C@H](CO)NC(=O)[C@H](CCCNC(=N)N)NC(=O)[C@H](CCCNC(=N)N)NC(=O)[C@H](CC(C)C)NC(=O)[C@@H](N)CO)CSSC[C@@H](C(=O)N[C@@H](CC(N)=O)C(=O)N[C@@H](CO)C(=O)N[C@@H](Cc2ccccc2)C(=O)N[C@@H](CCCNC(=N)N)C(=O)N[C@@H](Cc2ccc(O)cc2)C(=O)O)NC(=O)CNC(=O)[C@H](CC(C)C)NC(=O)CNC(=O)[C@H](CO)NC(=O)[C@H](CCC(N)=O)NC(=O)[C@H](C)NC(=O)CNC1=O` [ANP, atrial natriuretic peptide], the “effect on MAP duration (in words)” value in experiment [1] (100 nM) was “not significantly changed”. In experiment [1] (setting [3]), the “decrease in MAPD90 versus baseline” value stood at 0.7 ± 1.7 ms. In experiment [2], the “ERP versus 30 minute saline group (in words)” value is “not a significant difference”, the “ERP (ventricular effective refractory period)” value was 28 + 2 msec, the Heart rate is listed as 255 + 8 min^−1 and the PR interval is listed as 73 + 4 msec. Besides, in experiment [2], the QRST interval is 23 + 1 msec and the VT score turned out to be 3.

The values above are taken from patent publication US9193777B2, “Method of treating cardiac arrhythmia with long acting atrial natriuretic peptide(LA-ANP)” (Mayo Foundation for Medical Education and Research, priority 2009, dated 2015).
